Reference: ChEMBL document CHEMBL1201862, “PubChem BioAssay data set” (2004)
The source made the active and inactive calls.

Key:
[1] = biological target: T1, Calpain-2 catalytic subunit (Sus scrofa, UniProt P43367); assay: m-calpain protease blockers, concentration series – biochemical, fluorogenic peptide substrate, dose response (AID 1420); type: functional
T1 sequence (P43367 whole entry): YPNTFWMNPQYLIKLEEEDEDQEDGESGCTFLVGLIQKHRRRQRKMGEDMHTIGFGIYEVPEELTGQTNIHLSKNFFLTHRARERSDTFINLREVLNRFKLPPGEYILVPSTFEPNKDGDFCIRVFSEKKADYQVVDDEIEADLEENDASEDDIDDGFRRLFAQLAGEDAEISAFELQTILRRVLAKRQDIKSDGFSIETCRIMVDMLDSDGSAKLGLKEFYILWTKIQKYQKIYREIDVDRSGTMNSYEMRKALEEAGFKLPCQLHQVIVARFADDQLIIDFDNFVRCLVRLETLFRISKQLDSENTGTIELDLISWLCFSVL

cells [2] = type: functional, cell-based
cells [3] = type: functional, cell-based; remark: listed apart in the source
[4] = biological target: T2, DNA repair protein RAD52 homolog (Homo sapiens, UniProt P43351); type: functional, biochemical
T2 sequence (P43351 whole entry): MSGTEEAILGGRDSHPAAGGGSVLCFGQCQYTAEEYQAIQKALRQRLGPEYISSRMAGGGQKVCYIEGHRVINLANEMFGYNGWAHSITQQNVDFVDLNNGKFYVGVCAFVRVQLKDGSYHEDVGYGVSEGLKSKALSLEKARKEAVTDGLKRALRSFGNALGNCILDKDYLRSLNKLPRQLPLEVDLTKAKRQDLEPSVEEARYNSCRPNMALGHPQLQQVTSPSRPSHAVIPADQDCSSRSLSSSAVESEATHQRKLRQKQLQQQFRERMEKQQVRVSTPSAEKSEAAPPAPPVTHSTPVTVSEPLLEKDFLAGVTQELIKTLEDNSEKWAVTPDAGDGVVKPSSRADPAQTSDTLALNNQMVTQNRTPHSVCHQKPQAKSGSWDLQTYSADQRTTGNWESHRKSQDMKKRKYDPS

[5] = Luminescence Cell-Based Dose Retest to Confirm Inhibitors of Cancer Stem Cells. [Related pubchem assays (depositor defined):AID2717, AID2721]; type: functional; conditions: Homo sapiens
[6] = microbe, parasite or virus in culture; type: functional; conditions: Mycobacterium tuberculosis
[7] = Luminescence Cell-Based Dose Confirmation HTS to Identify Inhibitors of Platelet Dense Granule Release. [Related pubchem assays: 1663 (Primary HTS), 1678 (Summary of Project)]; type: functional
[8] = biological target: Luciferin 4-monooxygenase (Photinus pyralis, UniProt P08659); assay: inhibition of purified Photinus pyralis luciferase – biochemical, luminescence, dose response (AID 1891)
Sequence of Luciferin 4-monooxygenase (P08659 whole entry): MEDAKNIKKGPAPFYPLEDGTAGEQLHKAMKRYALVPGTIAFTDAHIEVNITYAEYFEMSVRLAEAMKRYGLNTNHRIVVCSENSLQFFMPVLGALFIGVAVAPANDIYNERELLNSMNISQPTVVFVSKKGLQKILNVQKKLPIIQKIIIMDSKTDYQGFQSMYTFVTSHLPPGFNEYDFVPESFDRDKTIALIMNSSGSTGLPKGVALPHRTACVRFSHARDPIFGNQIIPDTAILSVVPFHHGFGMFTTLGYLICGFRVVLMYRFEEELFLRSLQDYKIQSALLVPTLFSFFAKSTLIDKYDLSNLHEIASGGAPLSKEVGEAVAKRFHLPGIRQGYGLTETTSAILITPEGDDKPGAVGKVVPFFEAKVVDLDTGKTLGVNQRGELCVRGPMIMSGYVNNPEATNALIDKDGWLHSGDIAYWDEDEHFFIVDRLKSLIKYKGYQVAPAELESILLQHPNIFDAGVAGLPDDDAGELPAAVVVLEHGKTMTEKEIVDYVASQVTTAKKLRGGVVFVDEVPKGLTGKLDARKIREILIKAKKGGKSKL

[9] = A cytotoxicity screen of small molecule inhibitors of the PhoP region in Salmonella typhi identified in the primary screen. [Related pubchem assays: 1850, 1864, 1985 ]; type: functional
Fatty acid synthase [10] = biological target: T3, Fatty acid synthase (Homo sapiens, UniProt P49327); assay: inhibition of human FAS-TE enzyme activity – biochemical, kinetic fluorescence intensity, dose response (AID 624326); type: functional;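 further: rate of fluorescence rise from hydrolysis of a fluorogenic O-methyl fluorescein ester substrate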
T3 sequence (P49327 whole entry): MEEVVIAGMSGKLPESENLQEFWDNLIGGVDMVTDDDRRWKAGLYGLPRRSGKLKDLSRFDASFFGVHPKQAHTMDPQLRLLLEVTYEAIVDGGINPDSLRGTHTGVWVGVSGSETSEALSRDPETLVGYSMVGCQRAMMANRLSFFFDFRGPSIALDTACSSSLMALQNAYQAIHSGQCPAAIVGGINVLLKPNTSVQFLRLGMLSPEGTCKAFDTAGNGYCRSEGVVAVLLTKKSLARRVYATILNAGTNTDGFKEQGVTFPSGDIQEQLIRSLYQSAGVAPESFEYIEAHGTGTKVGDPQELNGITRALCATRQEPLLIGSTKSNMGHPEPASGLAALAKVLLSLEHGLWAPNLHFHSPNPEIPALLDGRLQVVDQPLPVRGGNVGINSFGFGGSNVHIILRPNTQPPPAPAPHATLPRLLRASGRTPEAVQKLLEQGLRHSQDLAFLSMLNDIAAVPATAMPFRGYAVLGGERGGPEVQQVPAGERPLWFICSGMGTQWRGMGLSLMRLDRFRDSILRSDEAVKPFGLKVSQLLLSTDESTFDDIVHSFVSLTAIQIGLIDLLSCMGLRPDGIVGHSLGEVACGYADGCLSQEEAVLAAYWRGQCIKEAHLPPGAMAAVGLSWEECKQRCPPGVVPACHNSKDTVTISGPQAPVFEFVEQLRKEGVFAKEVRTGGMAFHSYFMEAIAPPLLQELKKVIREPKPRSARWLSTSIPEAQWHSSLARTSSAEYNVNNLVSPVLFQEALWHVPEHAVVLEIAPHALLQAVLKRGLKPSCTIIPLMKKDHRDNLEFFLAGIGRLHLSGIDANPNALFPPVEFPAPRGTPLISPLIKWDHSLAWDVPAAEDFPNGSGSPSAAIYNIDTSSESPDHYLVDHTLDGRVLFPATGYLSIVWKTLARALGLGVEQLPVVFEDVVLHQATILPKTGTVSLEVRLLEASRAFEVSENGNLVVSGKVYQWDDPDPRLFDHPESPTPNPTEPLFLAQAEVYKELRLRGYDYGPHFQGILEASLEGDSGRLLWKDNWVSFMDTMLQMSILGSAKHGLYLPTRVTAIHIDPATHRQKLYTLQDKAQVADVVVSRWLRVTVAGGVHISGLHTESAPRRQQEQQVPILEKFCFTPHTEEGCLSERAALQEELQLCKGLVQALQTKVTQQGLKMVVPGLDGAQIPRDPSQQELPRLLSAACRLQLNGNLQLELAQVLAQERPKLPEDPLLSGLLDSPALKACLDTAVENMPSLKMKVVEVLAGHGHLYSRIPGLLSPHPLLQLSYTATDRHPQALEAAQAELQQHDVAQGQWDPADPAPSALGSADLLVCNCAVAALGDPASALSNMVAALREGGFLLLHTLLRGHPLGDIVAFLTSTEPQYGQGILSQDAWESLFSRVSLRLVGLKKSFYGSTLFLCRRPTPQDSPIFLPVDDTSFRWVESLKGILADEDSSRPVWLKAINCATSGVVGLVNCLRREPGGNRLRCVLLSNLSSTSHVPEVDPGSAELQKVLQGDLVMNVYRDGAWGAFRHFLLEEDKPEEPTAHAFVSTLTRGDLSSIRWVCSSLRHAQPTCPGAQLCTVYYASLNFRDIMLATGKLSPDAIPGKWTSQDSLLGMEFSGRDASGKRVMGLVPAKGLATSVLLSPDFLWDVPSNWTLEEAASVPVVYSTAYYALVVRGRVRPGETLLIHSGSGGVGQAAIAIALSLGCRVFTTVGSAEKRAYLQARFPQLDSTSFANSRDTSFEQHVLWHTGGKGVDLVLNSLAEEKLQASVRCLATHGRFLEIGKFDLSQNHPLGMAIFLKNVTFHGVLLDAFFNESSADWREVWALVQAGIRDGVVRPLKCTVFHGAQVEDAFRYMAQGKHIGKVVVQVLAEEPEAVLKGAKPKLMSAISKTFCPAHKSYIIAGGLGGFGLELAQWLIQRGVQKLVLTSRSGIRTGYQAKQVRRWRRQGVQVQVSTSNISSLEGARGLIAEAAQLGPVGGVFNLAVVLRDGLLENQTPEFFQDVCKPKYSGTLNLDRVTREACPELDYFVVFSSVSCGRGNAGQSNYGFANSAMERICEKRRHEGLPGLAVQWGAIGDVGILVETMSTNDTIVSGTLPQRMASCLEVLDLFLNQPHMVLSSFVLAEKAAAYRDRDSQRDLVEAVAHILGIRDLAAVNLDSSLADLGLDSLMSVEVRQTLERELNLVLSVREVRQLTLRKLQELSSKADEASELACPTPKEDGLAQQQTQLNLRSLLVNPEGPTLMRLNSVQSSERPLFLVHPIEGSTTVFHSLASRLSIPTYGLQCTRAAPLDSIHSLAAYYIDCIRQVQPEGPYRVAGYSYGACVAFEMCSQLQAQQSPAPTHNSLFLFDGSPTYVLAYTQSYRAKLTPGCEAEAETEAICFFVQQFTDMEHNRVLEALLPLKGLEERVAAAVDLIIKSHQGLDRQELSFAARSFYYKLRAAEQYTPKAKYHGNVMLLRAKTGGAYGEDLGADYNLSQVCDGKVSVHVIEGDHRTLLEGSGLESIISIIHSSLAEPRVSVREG

Fatty acid synthase [11] = biological target: T3, Fatty acid synthase; assay: inhibition of human FAS-TE enzyme activity – biochemical, endpoint fluorescence intensity, uHTS hits, dose response (AID 624327); type: functional;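 further: fluorescence from hydrolysis of an O-methyl fluorescein acyl ester substrate by the enzyme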
[12] = fluconazole-exposed Candida albicans growth modulators – fluorescence, retest, confirmation (AID 2467); type: functional, cell-based
[13] = NIH-3T3 fibroblast cytotoxicity, dose response, cytotoxicity control, cell-based, fluorescence, Alamar Blue, secondary assay (AID 2327); type: functional;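 further: NIH-3T3 mouse fibroblasts cultured with fluconazole at 8 µg/mL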
Streptococcus = assay: GAS UMAA2166 growth inhibition – luminescence, BacTiterGlo, counter-screen for streptokinase expression inhibitor project, dose response (AID 1915); type: functional, organism-based;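 further: potency for reduction of bacterial viability or growth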
[14] = biological target: Induced myeloid leukemia cell differentiation protein Mcl-1 (Homo sapiens, UniProt Q07820); type: functional
Sequence of Induced myeloid leukemia cell differentiation protein Mcl-1 (Q07820 whole entry): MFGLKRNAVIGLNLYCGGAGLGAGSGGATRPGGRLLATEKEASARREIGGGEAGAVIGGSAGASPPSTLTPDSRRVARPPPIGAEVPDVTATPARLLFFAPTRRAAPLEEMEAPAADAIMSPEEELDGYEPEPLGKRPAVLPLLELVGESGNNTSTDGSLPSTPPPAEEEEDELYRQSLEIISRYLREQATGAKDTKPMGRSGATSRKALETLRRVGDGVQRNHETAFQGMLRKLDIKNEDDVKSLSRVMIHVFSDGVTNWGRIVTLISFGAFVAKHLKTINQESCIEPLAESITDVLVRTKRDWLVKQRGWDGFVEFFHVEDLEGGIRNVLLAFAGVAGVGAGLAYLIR

[15] = tested on: Streptococcus sp. 'group A'; assay: Streptococcus pyogenes SK(-)GAS viability under kanamycin – luminescence, BacTiterGlo, confirmation, counter-screen for streptokinase expression inhibitor project, dose response (AID 1900); type: functional, organism-based

For `CC1Cc2ccccc2N1C(=O)COC(=O)C1(c2ccccc2F)CCCC1` (configuration not stated), the IC50 [1] was 7.23 µM (not active).
With `CCOC(=O)[C@H]1O[C@@H]1C(=O)N[C@@H](CC(C)C)C(=O)NCCC(C)C` [ALOXISTATIN] the IC50 [1] was 1.77 µM (active).
For `CN(C)c1ccc(CNC(=O)CCS(=O)(=O)c2ccc3c(c2)oc(=O)n3C)cc1`, the EC50 (cells [2]) was > 350 µM (not active) and the EC50 (cells [3]) was > 350 µM (not active).
For `COc1ccccc1C1c2ccc3ccccc3c2Oc2ncn(CCN(C)C)c(=N)c21` (configuration not stated), the AC50 [4] was 20.6 µM (active), the AC50 [5] was 2.72 µM (active) and the CC50 [6] was 5.8 µM (active).
For `COC(=O)c1sccc1NC(=O)Nc1cccc(C)c1`, the EC50 [7] was 2.5 µM (active) and the EC50 [8] was 0.21 µM (active).
In the case of `Cc1cc(OCC(=O)Nc2ccc3c(c2)OCCO3)cc(C)c1Cl`, the EC50 (cells [2]) is reported as > 350 µM (not active) and the EC50 (cells [3]) is reported as > 350 µM (not active).
With `c1ccc(CN2CCC(N3CCN(Cc4ccc5c(c4)OCO5)CC3)CC2)cc1` the EC50 [9] was > 50 µM (active).
For `CCN1CCN(CCCNC(=O)C2CCN(c3nnc(-n4c(C)ccc4C)s3)CC2)CC1`, the AC50 [4] was 9.22 µM (active).
For `O=C(N/N=C/c1ccc(N2CCCC2)c([N+](=O)[O-])c1)c1cccnc1`, the EC50 [9] was > 50 µM (active).
In the case of `Cc1ccc(-c2nc(C[S+]([O-])CC(=O)NCCCN3CC(C)CC(C)C3)c(C)o2)cc1` (configuration not stated), the EC50 [7] is reported as > 112 µM (not active) and the EC50 [8] is reported as > 112 µM (not active).
In the case of `Cc1c(OCC(=O)NC(Cc2ccc(Cl)cc2)C(=O)O)ccc2c(-c3ccccc3)cc(=O)oc12` (configuration not stated), the IC50 (Fatty acid synthase [10]) is reported as 13.3 µM (active) and the IC50 (Fatty acid synthase [11]) is reported as 6.45 µM (active).
For `O=C(CSc1cccc[n+]1[O-])c1cc(Cl)ccc1Cl`, the IC50 [1] was > 50 µM (not active), the EC50 [12] was > 38 µM (not active) and the EC50 [13] was 35.8 µM (active).
With `O=C(O)c1ccc(N/N=C/c2ccc(-c3ccc(Cl)cc3Cl)o2)cc1` the EC50 (Streptococcus) was 2.33 µM (active), the IC50 [14] was 3.56 µM (active) and the IC50 (Fatty acid synthase [10]) was 3.65 µM (active). The IC50 (Fatty acid synthase [11]) was 7.07 µM (active) and the EC50 [15] was 1.46 µM (active).
For `Cc1cccc(NS(=O)(=O)c2ccc3c(c2)OCCO3)c1`, the EC50 [9] was > 50 µM (active).
